Data published in patent US11065294B2, “Composition including oriental medicine to treat neoplastic disease” (COMPREHENSIVE AND INTEGRATIVE MEDICINE INSTITUTE, priority 2013, dated 2021).
“And” between values parts separate entries of the source, which are not always exact repeats. Equal values may be shown once. Where a name gives a salt, the structure may show the parent alone. Marks after values point to notes of the source that are not given here.

Legend:
in vivo [1] = details: male, SD, rat, plasma, po, 50 mg/kg
in vivo [2] = details: male, SD, rat, plasma, po, 50 mg/kg; for AUC(0-inf): AUC0-inf of gefitinib; for AUC(0-t): AUC0-t of gefitinib; for Cmax: Cmax of gefitinib; for MRT inf: MRTinf of gefitinib; for half-life: t1/2 of gefitinib
NCI-H520 cell xenograft = assay: NCI-H520 xenograft nude mice, 35 days oral: gefitinib 120 mg/kg single, bojungikgi-tang 400 mg/kg single, or co-administered within 5 minutes; type: in vivo, Balb/c Slc nu/nu mice; details: co-adm BJIKT 100/200/400 mg/kg in order
Description: A total of 73 nude mice were purchased, and NCI-H520 cells were xenografted into a subcutaneous region of a right hip each of 67 mice. 14 days after the grafting, the xenografted mice having a tumor volume of 100 mm^3 or more were selected, and divided into seven groups of 6 mice each to be used in the experiment as listed in Table 16. Separately, 6 mice were prepared as the vehicle control.
Then, the NCI-H520 cells were cultured to a density of 1.0×10^8 cells/ml to prepare a tumor cell suspension, and 0.2 mL (2×10^7 cells/head) of the NCI-H520 tumor cell suspension was injected into subcutaneous regions of right back buttocks of the mice to form a solid tumor mass.

MCF-7 cell xenograft = assay: MCF-7 xenograft nude mice, 35 days oral: tamoxifen 20 mg/kg single, JEKHT 500 mg/kg single, or co-administered within 5 minutes; tumor, immune and cachexia readouts; type: in vivo, Balb/c Slc nu/nu mice
Text: In Example 3, as laboratory animals, Balb/c Slc nu/nu mice (5-week-old females, SLC, Shizuoka, Japan) were used. Seventy three nude mice were purchased, and sixty seven xenografted mice having a tumor volume of 50 mm^3 or more 14 days after MCF-7 cells were xenografted into subcutaneous parts of a right hip of each mouse were selected, and divided into groups of seven mice each.
The xenografted MCF-7 cells were maintained by sub-culturing the MCF-7 cells (American Type Culture Collection Center, VA, USA) using 10% fetal bovine serum (FBS)-added RPMI 1640 (Gibco, Grand Island, N.Y., USA) media in a 5% C02 incubator at 37° C., and a solid tumor mass was formed by preparing a tumor cell suspension to have a cell concentration of 1.0×10^8 cell/ml, and grafting 0.2 ml (2×10^7 cell/mouse) of the MCF-7 tumor cell suspension on a subcutaneous part of a right hip of each mouse.

in vivo [3] = details: male, SD, rat, plasma
in vivo [4] = details: male, SD, rat, plasma; for Cmax / MRT inf / Tmax / half-life: oral; for Cmax: Blood Cmax of tamoxifen; for MRT inf: Blood MRTinf of tamoxifen; for Tmax: Blood Tmax of tamoxifen; for half-life: Blood t1/2 of tamoxifen; for AUC(0-inf) / AUC(0-t): po, 50 mg/kg; for AUC(0-inf): Blood tamoxifen AUC0-inf; for AUC(0-t): Blood tamoxifen AUC0-t
HepG2 cells [5] = assay: HepG2 cell viability, MTT method (YMJHT, sorafenib); type: cell-based; details: Homo sapiens
HepG2 cells [6] = assay: HepG2 cell viability, MTT method (BJIKT, sorafenib); type: cell-based; details: Homo sapiens
[7] = sorafenib 100 mg/kg single
[8] = mouse, in vivo
[9] = co-adm JEKHT 125/250/500 mg/kg in order
[10] = co-adm JEKHT dose given in table
[11] = submandibular lymph node, JEKHT dose = table row
[12] = tumor mass, JEKHT dose = table row

## COc1cc2ncnc(Nc3ccc(F)c(Cl)c3)c2cc1OCCCN1CCOCC1 [Gefitinib]
In vivo [1]
  AUC(0-inf): 16400 ± 9310 ng·h/mL
  AUC(0-t): 14600 ± 9450 ng·h/mL
  Cmax: 2160 ± 760 ng/mL
  half-life: 2.59 ± 0.76 h
In vivo [2]; 9th administration
  AUC(0-inf): 16900 ± 4140 ng·h/mL
  AUC(0-t): 13500 ± 2780 ng·h/mL
  Cmax: 3120 ± 770 ng/mL
  MRT inf: 5.71 ± 1.04 h
  half-life: 2.38 ± 0.88 h
In vivo [2]; first gefitinib administration
  AUC(0-inf): 20200 ± 4610 ng·h/mL
  AUC(0-t): 15400 ± 2240 ng·h/mL
  Cmax: 3010 ± 480 ng/mL
  MRT inf: 5.94 ± 1.36 h
  half-life: 2.82 ± 0.92 h
NCI-H520 cell xenograft
  Absolute periovarian fat pad weight, change vs TB control: −3.06%
  Absolute spleen weight, change vs TB control: 14.01%
  Absolute submandibular lymph node weight, change vs TB control: 50.00%
  Absolute tumor weight change: −39.14%
  Blood IFN-γ content, change vs TB control: 6.77%
  Blood IL-6 content, change vs TB control: −12.33%
  Body weight gain, change vs tumor-bearing control: 68.23%
  COX-2 immunoreactive cells in tumor tissue, change vs TB control: −42.48%
  Caspase-3 immunoreactive cells in tumor tissue, change vs TB control: 168.67%
  Diameter of splenic white pulp, change vs TB control: 6.51%
  Follicles in submandibular lymph node cortex, change vs TB control: 15.00%
  Mean white adipocyte diameter, change vs TB control: −7.01%
  Number of splenic white pulps, change vs TB control: 22.22%
  PARP immunoreactive cells in tumor tissue, change vs TB control: 125.47%
  Percentage of apoptotic cells in tumor tissue, change vs TB control: 131.78%
  Percentage of tumor cells in tumor tissue, change vs TB control: −36.78%
  Periovarian fat pad thickness, change vs TB control: 2.11%
  Spleen IL-1β content, change vs TB control: 8.36%
  Spleen IL-10 content, change vs TB control: 5.16%
  Spleen TNF-α content, change vs TB control: 6.73%
  Splenic NK cell activity, change vs TB control: 4.93%
  Submandibular lymph node cortex thickness, change vs TB control: 16.19%
  TNF-α immunoreactive cells in tumor tissue, change vs TB control: 12.63%
  Total spleen thickness, change vs TB control: −6.99%
  Total submandibular lymph node thickness, change vs TB control: 7.42%
  Tumor volume variation, change vs tumor-bearing control: −55.42%
  iNOS immunoreactive cells in tumor tissue, change vs TB control: 9.02%

## CC/C(=C(\c1ccccc1)c1ccc(OCCN(C)C)cc1)c1ccccc1 [Tamoxifen, Tamoxifen citrate]
MCF-7 cell xenograft; JEKHT dose = table row
  Periovarian fat pad total thickness: 0.28 ± 0.10^a mm/central regions
  Spleen total thickness: 1.15 ± 0.13^a mm/central regions
  Spleen white pulp diameters: 298.11 ± 61.88^a μm/white pulp
  Spleen white pulp numbers: 4.14 ± 1.07^a /mm^2
  Submandibular lymph node total thickness: 487.38 ± 83.96^a μm/central regions
MCF-7 cell xenograft; [9]
  Blood IFN-γ content, change vs tumor-bearing control: −14.77%
  Blood IL-6 content, change vs tumor-bearing control: 21.68%
  Body weight gain, change vs tumor-bearing control: −11162.72%
  Peritoneal NK cell activity, change vs tumor-bearing control: −26.39%
  Splenic IL-1β content, change vs tumor-bearing control: −10.82%
  Splenic IL-10 content, change vs tumor-bearing control: −33.33%
  Splenic NK cell activity, change vs tumor-bearing control: −12.73%
  Splenic TNF-α content, change vs tumor-bearing control: −23.94%
  Tumor volume variation, change vs tumor-bearing control: −66.73%
MCF-7 cell xenograft; [10]
  Periovarian fat pad absolute weight: 0.009 ± 0.003 g
  Spleen absolute weight: 0.049 ± 0.009 g
  Submandibular lymph node absolute weight: 0.002 ± 0.001 g
  Tumor mass absolute weight: 0.047 ± 0.010 g
  Tumor volume Changes [B − A]: 125.92 ± 40.49^a mm^3
  Tumor volume, Sacrifice [B]: 184.85 ± 37.69^a mm^3
MCF-7 cell xenograft; periovarian fat pad, JEKHT dose = table row
  White adipocyte diameters: 19.89 ± 5.09^a μm
MCF-7 cell xenograft; [11]
  Cortex lymphoid cell follicle numbers: 4.14 ± 1.68^gj /mm^2
  Cortex thickness: 255.43 ± 46.37^a μm/lymph node
  TNF-positive cells: 6.57 ± 2.51^gj cells/mm^2 of lymph node
MCF-7 cell xenograft; [12]
  Apoptotic cell percentages: 27.50 ± 6.62%
  Tumor cell volume: 51.00 ± 10.37 %/mm^2
In vivo [3]; oral
  AUC(0-inf): 6860 ± 2920 ng·h/mL
  AUC(0-t): 5270 ± 1790 ng·h/mL
  Cmax: 364 ± 122 ng/mL
  MRT inf: 14.9 ± 6.29 h
  Tmax: 5.6 ± 2.19 h
In vivo [3]; po, 50 mg/kg
  half-life: 9.56 ± 4.16 h
In vivo [4]; 8th administration
  Cmax: 770 ± 220 ng/mL
  MRT inf: 28.5 ± 8.53 h
  Tmax: 3.4 ± 0.89 h
  half-life: 19.6 ± 5.84 h
  AUC(0-inf): 21500 ± 3040 ng·h/mL
  AUC(0-t): 12400 ± 2660 ng·h/mL
In vivo [4]; first tamoxifen administration
  Cmax: 280 ± 160 ng/mL
  MRT inf: 18.1 ± 5.71 h
  Tmax: 3.6 h
  half-life: 13.1 ± 5.77 h
  AUC(0-inf): 4860 ± 2870 ng·h/mL
  AUC(0-t): 3230 ± 1790 ng·h/mL

## CNC(=O)c1cc(Oc2ccc(NC(=O)Nc3ccc(Cl)c(C(F)(F)F)c3)cc2)ccn1 [Sorafenib, sorafenib]
HepG2 cells [5]
  IC50: 2.81 µM and 1.31 µg/mL
HepG2 cells [6]
  IC50: 2.8 µM and 1.3 µg/mL
[7]
  Deaths, Days of treatment period (Day 0 to 27): 0
  Deaths, Termination date (28th day of administration): 0
[8]; male, ICR, 28 days
  Any abnormal signs: 0/7 (0%)
  Normal appearance: 7/7 (100%)
[8]
  Adrenal G L absolute weight: 0.003 ± 0.002
  BASO (%): 0.30 ± 0.20%
  Body weight gain, Day 0~Day 14: 6.63 ± 1.62
  Body weight gain, Day 14~Day 27: 2.11 ± 1.51
  Brain absolute weight: 0.471 ± 0.022
  Epididymis L absolute weight: 0.036 ± 0.004^a
  HCT: 41.89 ± 2.13%
  HGB: 18.54 ± 0.88 g/dL
  Heart absolute weight: 0.155 ± 0.011
  Kidney L absolute weight: 0.285 ± 0.042
  LN L absolute weight: 0.002 ± 0.001^a
  LYM (%): 70.74 ± 6.08^c %
  Liver absolute weight: 1.234 ± 0.149
  Lung absolute weight: 0.172 ±0 .010
  MCH: 20.89 ± 0.88 pg
  MCV: 47.13 ± 2.47 fL
  MONO (%): 5.26 ± 1.55%
  NEU (%): 17.36 ± 5.16^c %
  PLT: 804.86 ± 99.24 K/μL
  Pancreas S absolute weight: 0.156 ± 0.022
  RBC: 8.89 ± 0.39 M/μL
  RET: 0.51 ± 0.33 ea/1000
  Spleen absolute weight: 0.063 ± 0.007^e
  Testis L absolute weight: 0.097 ± 0.006^a
  Thymus absolute weight: 0.027 ± 0.004^a
  WBC: 1.81 ± 0.53^a K/μL
